Data from US20050282745A1, “Non-mammalian GnRH analogs and uses thereof in regulation of fertility and pregnancy” (priority 2001, published 2005).
Like-named read-outs stand apart in the source and are kept apart here. Non-standard residues stand in square brackets, D forms with d. Residues, ends and D or L forms follow the SMILES beside them. pGlu = O=C1CC[C@@H](C(=O)O)N1; azaGly = NNC(=O)O

Test system: human placental GnRH receptor
Test: Placental GnRH receptor binding, radiolabeled D-Arg(6)-chicken II GnRH-aza-Gly(10)-amide label
Experimental: The newly synthesized non-mammalian GnRH analogs and other commercially available mammalian GnRH analogs were used in placental receptors binding and enzyme stability study described here. On the basis of these studies, the most receptor potent and enzyme-stable analogs were chosen for further biopotency studies. GnRH receptors were purified from the membrane fractions from placentas. The purification procedure for the placental GnRH receptor was performed using a modification of the method described by Bramley et al., which reference is specifically incorporated herein by reference for the purpose. Addition of enzyme inhibitors for the endogenous C-ase-1 were used as well as agents for receptor stabilization. Initially, receptor-binding assays using ^125I-Buserelin as label were performed. The competitive binding of each of the analogs was studied over a dose range of 10^−11 to 10^−6 M. Incubation was at room temperature and receptor bound label was precipitated with polyethylene glycol. Specific and non-specific binding was determined. The data was subjected to Scatchard analysis. The non-mammalian GnRH analogs' ability to bind to the placental GnRH receptor was compared to that for synthetic mammalian GnRH (SEQ ID NO: 5), Buserelin (SEQ ID NO: 10) and other mammalian analogs. […] This way, the receptor affinity for that analog could be precisely determined. Receptors from three different term placentas were used to study each of these analogs. […] Bramley T A, McPhie C A, Menzies G S 1994 Human placental gonadotropin-releasing hormone (GnRH) binding sites: 111. Changes in GnRH binding levels with stage of gestation. Placenta 15:733-745.
In these and additional studies, placental GnRH receptors were purified from human term placentas after homogenization in 40 mM Tris (pH 7.4) and filtered through cheesecloth, followed by an initial centrifugation at 1,000×g for 10 minutes. The resulting supernatant was, again, centrifuged at 35,000×g for 30 minutes and the membrane pellet was collected and resuspended in Tris buffer with 0.3 M sucrose. The protein concentration was determined. Membranes were stored frozen at −20 C until use. Before use, placental membranes were diluted to 5,000 μg/mL with Tris buffer containing 0.5% BSA and 50 U/mL bacitracin. Placental membranes (100 μL) were used with varying concentrations of mammalian GnRH (SEQ ID NO: 5), Buserelin (SEQ ID NO: 10), chicken II GnRH (SEQ ID NO: 6), D-Arg (6)-chicken II GnRH-des-Gly (10)-ethylamide (SEQ ID NO: 2), or D-Arg (6)-chicken II GnRH-aza-Gly (10)-amide (SEQ ID NO: 2) (100 μL) and either radiolabeled Buserelin (SEQ ID NO: 10) or radiolabeled D-Arg (6)-chicken II GnRH-aza-Gly (10)-amide (SEQ ID NO: 2) (100 μL/tube and iodinated). Following incubation at room temperature for 4 hours, the bound and free hormones were separated using polyethylene glycol precipitation, followed by centrifugation. The binding affinity for each GnRH isoform or analog was calculated using the double reciprocal plot of bound versus free ligand. Each study was done using three different human term placental tissues.

binding affinity compared with mammalian GnRH (analog label): 25 fold
Kd (placenta 2 membrane preparation, read-out: affinity constant (Ks)): 68 nM
Kd (three placental membrane preparations, read-out: average binding affinity): 93 ± 23 nM
enhancement of affinity when the analog is used as label (versus Buserelin label): 2 fold
SMILES: N=C(N)NCCC[C@@H](NC(=O)[C@H](Cc1c[nH]cn1)NC(=O)[C@H](CO)NC(=O)[C@H](Cc1c[nH]c2ccccc12)NC(=O)[C@H](Cc1c[nH]cn1)NC(=O)[C@@H]1CCC(=O)N1)C(=O)N[C@@H](Cc1c[nH]c2ccccc12)C(=O)N[C@@H](Cc1ccc(O)cc1)C(=O)N1CCC[C@H]1C(=O)NNC(N)=O [D-Arg(6)-chicken II GnRH-aza-Gly(10)-amide] ([pGlu]HWSH[dR]WYP[azaGly]-NH2)
